Measurements: patent publication US20240148709A1, “METHODS OF TREATING EYE PAIN AND EYE DISORDERS” (Aisa Pharma, Inc., priority 2022, published 2024)

Test system: participants with SSc-RP
Assay: Scleroderma Health Assessment Questionnaire (SHAQ), Phase 2a study Part A
Format: in vivo, human
Conditions: for % change in Pain (SHAQ): mITT
Experimental: Part A—double-blind, placebo-controlled, parallel-group, dose selection, will assess the safety and efficacy of two doses of cilnidipine (10 mg and 20 mg), alone and in combination with tadalafil. A total of 36 participants will be randomized to one of six prespecified treatment arms. Refer to FIG. 1 for treatment arms in Part A of the study. Dosing last for 12 (±2) days in which participants will self-administer daily doses of assigned treatment in the morning. Each participant will take one capsule and one tablet to blind the active therapy being received.
The standard, validated, patient reported outcome measures tool for SSc patients, the SHAQ, will be collected at the time points specified in the study schedules (FIG. 2 and FIGS. 3A and 3B) to assess the participant's quality of life. The SHAQ includes a Raynaud's VAS that will also be reported separately.
Results: Patients in the study were administered the Scleroderma Health Assessment Questionnaire (SHAQ) at the time of study entry and during clinic visits following the treatment period. The study is a two-part, parallel arm design, prospective, double-blind, randomized study conducted in Australia (Flinders Medical Center). 27 patients were randomized into the first phase of the study, following which a DSMB meeting was held, which reviewed data on the primary study endpoint and key Raynaud's secondary endpoints. Data on the SHAQ was not available for the DSMB to review. The mITT population, in which any data was available post treatment was 24 patients was the analysis population for this first part of the study. The second part (i.e., part B) of the study will randomize 36 patients in a double blind, randomized, prospective, placebo controlled, crossover study. In the first part (i.e., Part A) of the study for which data is presented, patients were randomized into 6 groups, cilnidipine at two doses (10 and 20 mg) alone and in combination with tadalafil 5 mg, tadalafil 5 mg alone, and placebo. […] The DSMB recommended that the study proceed into its double blind prospective cross overpowered second phase and compare cilnidipine 20 mg alone to placebo.

[1] = Pooled Cilnidipine 10 mg or 20 mg (N = 7)
[2] = Pooled Cilnidipine 10 mg or 20 mg (n = 6)
[3] = cilnidipine 10 mg and/or tadalafil 5 mg arms

COCCOC(=O)C1=C(C)NC(C)=C(C(=O)OC/C=C/c2ccccc2)C1c1cccc([N+](=O)[O-])c1 (stereo not drawn) [Cilnidipine, cilnidipine]
% change VAS Raynauds (Cilnidipine 20 mg (n = 3)): −49% | % change in Alternative Disability Index (Cilnidipine 20 mg (n = 3)): −42% | % change in Standard Disability Index (Cilnidipine 20 mg (n = 3)): −50% | % change overall SSc Disease Severity (Cilnidipine 20 mg (n = 3)): −63% (i.e., improvement) | % improvement in Breathing (median) (Cilnidipine 20 mg (n = 3)): 67% (median) | % improvement in VAS Digital Ulcers (Cilnidipine 20 mg (n = 3)): 35% | Alternative disability index, % improvement (Cilnidipine 20 mg (n = 3)): 42% improvement | Standard disability Index, % improvement (Cilnidipine 20 mg (n = 3)): 50% improvement | VAS - Breathing problems, % improvement (Cilnidipine 20 mg (n = 3)): 75% improvement* | VAS - Raynaud's, % improvement (Cilnidipine 20 mg (n = 3)): 55% improvement | VAS Overall Disease Severity, % improvement (Cilnidipine 20 mg (n = 3)): 63% improvement | % change in Pain (SHAQ) (Cilnidipine 20 mg (n = 3)): −53% | VAS- PAIN, % improvement (Cilnidipine 20 mg (n = 3), baseline 2.17 on a 0-10 VAS): 53% improvement* | SHAQ overall disease severity, Change from Baseline, Max [1]: 0.20 | SHAQ overall disease severity, Change from Baseline, Mean (SD) [1]: −1.214 (0.7946) | SHAQ overall disease severity, Change from Baseline, Median [1]: −1.500 | SHAQ overall disease severity, Change from Baseline, Min [1]: −1.90 | SHAQ overall disease severity, Change from Baseline, Q1 [1]: −1.800 | SHAQ overall disease severity, Change from Baseline, Q3 [1]: −0.400 | SHAQ overall disease severity, In-Clinic Visit (Day 12), Max [1]: 5.20 | SHAQ overall disease severity, In-Clinic Visit (Day 12), Mean (SD) [1]: 1.486 (1.7743) | SHAQ overall disease severity, In-Clinic Visit (Day 12), Median [1]: 1.200 | SHAQ overall disease severity, In-Clinic Visit (Day 12), Min [1]: 0.00 | SHAQ overall disease severity, In-Clinic Visit (Day 12), Q1 [1]: 0.200 | SHAQ overall disease severity, In-Clinic Visit (Day 12), Q3 [1]: 1.900 | SHAQ overall disease severity, Percent Change from Baseline, Max [2]: −26.8% | SHAQ overall disease severity, Percent Change from Baseline, Mean (SD) [2]: −59.80 (25.642) % | SHAQ overall disease severity, Percent Change from Baseline, Median [2]: −55.86% | SHAQ overall disease severity, Percent Change from Baseline, Min [2]: −100.0% | SHAQ overall disease severity, Percent Change from Baseline, Q1 [2]: −76.19% | SHAQ overall disease severity, Percent Change from Baseline, Q3 [2]: −44.12% | % change VAS Raynauds (Pooled Cilnidipine (n = 7)): −17% | % change in Alternative Disability Index (Pooled Cilnidipine (n = 7)): −13% | % change in Standard Disability Index (Pooled Cilnidipine (n = 7)): −25% | % change overall SSc Disease Severity (Pooled Cilnidipine (n = 7)): −60% (i.e., improvement) | % improvement in Breathing (median) (Pooled Cilnidipine (n = 7)): 41% (median) | % improvement in VAS Digital Ulcers (Pooled Cilnidipine (n = 7)): 19% | % change in Pain (SHAQ) (Pooled Cilnidipine (n = 7)): −31% | % from baseline, Intestinal Problems, mean (Pooled cilnidipine): −32.4% | % from baseline, Intestinal Problems, median (Pooled cilnidipine): −44.1% | % from baseline, VAS Breathing, mean (Pooled cilnidipine): −8.2% | % from baseline, VAS Breathing, median (Pooled cilnidipine): −41.3% | % from baseline, VAS Finger Ulcers, mean (Pooled cilnidipine): −17.1% | % from baseline, VAS Finger Ulcers, median (Pooled cilnidipine): −50.9% | % from baseline, VAS Overall Disease Severity, mean (Pooled cilnidipine): −59.8% | % from baseline, VAS Overall Disease Severity, median (Pooled cilnidipine): −55.9% | % from baseline, VAS Pain, mean (Pooled cilnidipine): −31.2% | % from baseline, VAS Pain, median (Pooled cilnidipine): −45% | % from baseline, VAS Raynaud's, mean (Pooled cilnidipine): −18.6% | % from baseline, VAS Raynaud's, median (Pooled cilnidipine): −38.7% | % from baseline, alternative disability, mean (Pooled cilnidipine): −12.9% | % from baseline, alternative disability, median (Pooled cilnidipine): −22.2% | % from baseline, standard disability, mean (Pooled cilnidipine): −25% | % from baseline, standard disability, median (Pooled cilnidipine): −16.7% | SHAQ Finger Ulcers, Change from Baseline, Max [3]: 0.00 | SHAQ Finger Ulcers, Change from Baseline, Mean (SD) [3]: −0.425 (0.5058) | SHAQ Finger Ulcers, Change from Baseline, Median [3]: −0.350 | SHAQ Finger Ulcers, Change from Baseline, Min [3]: −1.00 | SHAQ Finger Ulcers, Change from Baseline, Q1 [3]: −0.850 | SHAQ Finger Ulcers, Change from Baseline, Q3 [3]: 0.000 | SHAQ Finger Ulcers, In Clinic Visit (Day 12), Max [3]: 1.10 | SHAQ Finger Ulcers, In Clinic Visit (Day 12), Mean (SD) [3]: 0.275 (0.5500) | SHAQ Finger Ulcers, In Clinic Visit (Day 12), Median [3]: 0.000 | SHAQ Finger Ulcers, In Clinic Visit (Day 12), Min [3]: 0.00 | SHAQ Finger Ulcers, In Clinic Visit (Day 12), Q1 [3]: 0.000 | SHAQ Finger Ulcers, In Clinic Visit (Day 12), Q3 [3]: 0.550 | SHAQ Finger Ulcers, Percent Change from Baseline, Max [3]: −38.9% | SHAQ Finger Ulcers, Percent Change from Baseline, Mean (SD) [3]: −69.44 (43.212) % | SHAQ Finger Ulcers, Percent Change from Baseline, Median [3]: −69.44% | SHAQ Finger Ulcers, Percent Change from Baseline, Min [3]: −100.0% | SHAQ Finger Ulcers, Percent Change from Baseline, Q1 [3]: −100.00% | SHAQ Finger Ulcers, Percent Change from Baseline, Q3 [3]: −38.89% | SHAQ Overall Change in Severity, Change from Baseline, Max [3]: 0.20 | SHAQ Overall Change in Severity, Change from Baseline, Mean (SD) [3]: −0.900 (0.9695) | SHAQ Overall Change in Severity, Change from Baseline, Median [3]: −0.950 | SHAQ Overall Change in Severity, Change from Baseline, Min [3]: −1.90 | SHAQ Overall Change in Severity, Change from Baseline, Q1 [3]: −1.700 | SHAQ Overall Change in Severity, Change from Baseline, Q3 [3]: −0.100 | SHAQ Overall Change in Severity, In Clinic Visit (Day 12), Max [3]: 5.20 | SHAQ Overall Change in Severity, In Clinic Visit (Day 12), Mean (SD) [3]: 1.825 (2.4061) | SHAQ Overall Change in Severity, In Clinic Visit (Day 12), Median [3]: 1.050 | SHAQ Overall Change in Severity, In Clinic Visit (Day 12), Min [3]: 0.00 | SHAQ Overall Change in Severity, In Clinic Visit (Day 12), Q1 [3]: 0.100 | SHAQ Overall Change in Severity, In Clinic Visit (Day 12), Q3 [3]: 3.550
